Source: patent publication US9023789B2, “Amylin analogs and pharmaceutical compositions thereof” (Novo Nordisk A/S, priority 2012, dated 2015)
Numbered stars: 1 amine (or outer) side, 2 acyl side, 3 side chain; on linkers, the order of the positions; unused ones are H or OH. Bridge positions count the residues as written; N and C are the ends. Side chains are listed from the residue outwards. Peptide text beside a SMILES is read from it. * marks the point of attachment. C20 diacid = O=C(O)CCCCCCCCCCCCCCCCCCC(=O)*; γGlu = O=C(O)[C@H](CCC(=O)[*:2])N[*:1]; AEEA = NCCOCCOCC(=O)O

Key:
[1] = target: T1, human amylin 3(a) receptor (human calcitonin receptor + RAMP-3) in BHK570 cells (Homo sapiens, UniProt O60896+P30988); experiment: ASSAY (II)a functional assay, human amylin receptor (CRE luciferase); type: cell-based; details: for EC50: human amylin receptor functional potency, assay (II), read-out: hAmylin-R funct. EC50
T1 construct: expressed in transfected cells
Method in brief: (§1)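 Ligand exposure 3 h at 37 °C, 5% CO2 in DMEM with 10% FBS, 10 mM Hepes pH 7.4. cAMP-driven luciferase read by luminescence after 30 min LucLite at room temperature.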

[2] = target: T2, human calcitonin (a) receptor in BHK570 cells (Homo sapiens, UniProt P30988); experiment: ASSAY (II)a functional assay, human calcitonin receptor (CRE luciferase); type: cell-based; details: read-out: hCTR funct. EC50
T2 construct: expressed in transfected cells
T2 sequence (P30988 25-474): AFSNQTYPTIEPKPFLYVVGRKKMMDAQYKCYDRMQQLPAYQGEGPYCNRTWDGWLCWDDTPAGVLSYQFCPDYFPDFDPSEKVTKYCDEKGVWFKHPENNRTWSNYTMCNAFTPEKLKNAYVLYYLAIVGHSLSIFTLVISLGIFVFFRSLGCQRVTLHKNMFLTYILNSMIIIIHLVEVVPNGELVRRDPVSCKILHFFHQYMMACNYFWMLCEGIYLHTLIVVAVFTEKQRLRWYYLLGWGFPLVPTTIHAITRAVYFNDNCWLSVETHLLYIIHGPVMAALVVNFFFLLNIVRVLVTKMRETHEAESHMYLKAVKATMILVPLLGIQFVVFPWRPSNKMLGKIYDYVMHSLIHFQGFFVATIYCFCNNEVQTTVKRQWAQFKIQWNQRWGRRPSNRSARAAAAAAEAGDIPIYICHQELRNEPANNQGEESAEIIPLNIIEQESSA
Method in brief: as §1

[3] = target: T3, human amylin receptor (membranes from Amylin 3(a)/CRE-luc cells) (Homo sapiens, UniProt O60896+P30988); experiment: ASSAY (V) binding to the human amylin receptor (SPA, 125I-rat amylin); details: for IC50: Table 4, read-out: hAmylin-R bind IC50;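 on all read-outs here: competition binding of cell membranes (35 ng/µL) mixed with SPA beads in 384-well plates at 40 µL total volume, read by scintillation counting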
T3 construct: expressed in transfected cells
T3 sequence (P30988 25-474): T2 sequence (P30988 25-474)
T3 sequence (O60896 24-148 partner): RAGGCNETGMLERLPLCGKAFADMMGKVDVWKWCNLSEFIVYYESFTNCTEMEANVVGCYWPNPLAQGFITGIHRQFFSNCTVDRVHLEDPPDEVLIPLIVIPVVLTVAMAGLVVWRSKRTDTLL

[4] = target: T4, rat amylin receptor (rat calcitonin receptor + rat RAMP 3) (Rattus norvegicus, UniProt P32214+Q9JJ73); experiment: ASSAY (VI) binding to the rat amylin receptor; details: for IC50: binding to rat amylin receptor, read-out: rAmylin-R bind IC50
T4 construct: expressed in transfected cells; host or cells: BHK tk'ts 13 (transient, FuGENE 6), membranes
T4 sequence (P32214 25-479 isoform P32214-2 limits assumed): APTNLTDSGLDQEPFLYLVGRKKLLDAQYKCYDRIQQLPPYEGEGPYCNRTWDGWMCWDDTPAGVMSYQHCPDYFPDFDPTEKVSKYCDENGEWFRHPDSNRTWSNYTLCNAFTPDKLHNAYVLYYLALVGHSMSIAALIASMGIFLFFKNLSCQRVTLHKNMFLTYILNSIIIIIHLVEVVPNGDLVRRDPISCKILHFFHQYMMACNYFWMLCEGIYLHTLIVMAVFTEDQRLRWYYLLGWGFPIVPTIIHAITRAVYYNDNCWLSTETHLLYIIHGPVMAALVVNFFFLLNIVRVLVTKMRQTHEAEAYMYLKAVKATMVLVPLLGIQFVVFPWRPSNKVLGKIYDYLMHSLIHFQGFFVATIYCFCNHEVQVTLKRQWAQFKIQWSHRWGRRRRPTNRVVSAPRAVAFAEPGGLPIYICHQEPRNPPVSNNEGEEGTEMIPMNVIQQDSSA
T4 sequence (Q9JJ73 23-147 partner): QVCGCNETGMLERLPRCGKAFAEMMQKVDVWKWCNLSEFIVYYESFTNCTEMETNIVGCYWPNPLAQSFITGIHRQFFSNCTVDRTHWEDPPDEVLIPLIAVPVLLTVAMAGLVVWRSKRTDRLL
Method in brief: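 This assay measured binding to the rat amylin receptor. BHK tk′ts 13 cells were transiently transfected with the rat calcitonin receptor using FuGENE® 6 (Roche), following the manufacturer's recommendations. About 48 hours after transfection, the cells were harvested and membranes were prepared from them for the binding determination.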

[5] = target: T5, human calcitonin receptor (Homo sapiens, UniProt P30988); experiment: ASSAY (VII) binding to the human calcitonin receptor (SPA, 125I-Calcitonin); details: read-out: hCTR bind IC50;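 further: cell membranes (35 ng/µL) combined with SPA beads in 40 µL of pH 7.4 Hepes buffer, 384-well format, signal counted on a TopCounter instrument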
T5 construct: expressed in transfected cells
T5 sequence (P30988 25-474): T2 sequence (P30988 25-474)

[6] = target: T6, rat calcitonin receptor (Rattus norvegicus, UniProt P32214); experiment: ASSAY (VIII) binding to the rat calcitonin receptor; details: Table 7, read-out: rCTR bind IC50
T6 construct: expressed in transfected cells; host or cells: BHK tk'ts 13 (transient, FuGENE 6), membranes
T6 sequence (P32214 25-479 isoform P32214-2 limits assumed): T4 sequence (P32214 25-479 isoform P32214-2 limits assumed)
Method in brief: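 Transfect BHK tk′ts 13 cells transiently with rat calcitonin receptor, culture in DMEM containing 10% FBS, collect cells about 48 hours later, then prepare membranes.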

[7] = hCTR funct. EC50 divided by hAmylin-R funct. EC50
[8] = hCTR funct. EC50 over hAmylin-R funct. EC50
[9] = human functional selectivity: hCTR funct. EC50 / hAmylin-R funct. EC50
[10] = Table 5, selectivity, hCTR bind IC50 / hAmylin-R bind IC50
[11] = Table 5a, selectivity, hCTR bind IC50 / hAmylin-R bind IC50
[12] = Table 5b, selectivity, hCTR bind IC50 / hAmylin-R bind IC50
[13] = Table 5c, selectivity, hCTR bind IC50 / hAmylin-R bind IC50
[14] = Table 7, human binding selectivity, included for comparison
[15] = Table 7a (preferred compounds), human binding selectivity, included for comparison
[16] = ratio of human calcitonin receptor binding IC50 to human amylin receptor binding IC50
[17] = Table 7, rat binding selectivity, rCTR IC50 / rAmylin-R IC50
[18] = Table 7a (preferred compounds), rat binding selectivity, rCTR IC50 / rAmylin-R IC50
[19] = ratio of rCTR bind IC50 to rAmylin-R bind IC50

CC[C@H](C)[C@H](NC(=O)[C@H](C)NC(=O)CNC(=O)[C@H](Cc1ccccc1)NC(=O)[C@H](CC(N)=O)NC(=O)[C@@H]1CCCN1C(=O)[C@H](CO)NC(=O)[C@H](CO)NC(=O)[C@H](Cc1c[nH]cn1)NC(=O)[C@H](CCCNC(=N)N)NC(=O)[C@H](CC(C)C)NC(=O)[C@H](Cc1ccccc1)NC(=O)[C@H](CC(N)=O)NC(=O)[C@H](C)NC(=O)[C@H](CC(C)C)NC(=O)[C@H](CCCNC(=N)N)NC(=O)[C@H](CCC(N)=O)NC(=O)[C@@H](NC(=O)[C@H](C)NC(=O)[C@@H]1CSSC[C@H](NC(=O)[C@H](CCCCN)NC(=O)CC[C@H](NC(=O)CCCCCCCCCCCCCCCCCCC(=O)O)C(=O)O)C(=O)N[C@@H](CC(N)=O)C(=O)N[C@@H]([C@@H](C)O)C(=O)N[C@@H](C)C(=O)N[C@@H]([C@@H](C)O)C(=O)N1)[C@@H](C)O)C(=O)N1CCC[C@H]1C(=O)N[C@@H](CO)C(=O)N[C@@H](CO)C(=O)N[C@H](C(=O)N[C@@H](CC(N)=O)C(=O)N[C@H](C(=O)NCC(=O)N[C@@H](CCCNC(=N)N)C(=O)N[C@@H](CC(N)=O)C(=O)N[C@H](C(=O)N[C@@H](Cc1ccc(O)cc1)C(N)=O)[C@@H](C)O)C(C)C)[C@@H](C)O [Example 39] ({C20 diacid-γGlu}-KCNTATCATQRLANFLRHSSPNFGAIPSSTNVGRNTY-NH2; disulfide 2-7)
Ratio hCT/hAmylin funct. [1, 7]: 11.6
Ratio hCT/hAmylin funct. [1, 8]: 11.6
EC50 [1]: 0.217 nM
Ratio hCT/hAmylin funct. [1, 9]: 11.6
EC50 [2]: 2.52 nM
IC50 [3]: 0.665 nM
Ratio hCT/hAmylin binding [3, 10]: 29.0
Ratio hCT/hAmylin binding [3, 11]: 29.0
Ratio hCT/hAmylin binding [3, 12]: 29.0
Ratio hCT/hAmylin binding [3, 13]: 29.0
Ratio hCT/hAmylin binding [3, 14]: 29.0
Ratio hCT/hAmylin binding [3, 15]: 29.0
Ratio hCT/hAmylin binding [3, 16]: 29.0
IC50 ([4]; Table 7): 1.77 nM
Ratio rCT/rAmylin binding [4, 17]: 54.5
Ratio rCT/rAmylin binding [4, 18]: 54.5
Ratio rCT/rAmylin binding [4, 19]: 54.5
IC50 [5]: 19.3 nM
IC50 [6]: 96.4 nM

CC[C@H](C)[C@H](NC(=O)[C@H](C)NC(=O)CNC(=O)[C@H](Cc1ccccc1)NC(=O)[C@H](CC(N)=O)NC(=O)[C@@H]1CCCN1C(=O)[C@H](CO)NC(=O)[C@H](CO)NC(=O)[C@H](Cc1c[nH]cn1)NC(=O)[C@H](CCCNC(=N)N)NC(=O)[C@H](CC(C)C)NC(=O)[C@H](Cc1ccccc1)NC(=O)[C@H](CC(N)=O)NC(=O)[C@H](C)NC(=O)[C@H](CC(C)C)NC(=O)[C@H](CCCNC(=N)N)NC(=O)[C@H](CCC(N)=O)NC(=O)[C@@H](NC(=O)[C@H](C)NC(=O)[C@@H]1CSSC[C@H](NC(=O)[C@@H](N)CCCCNC(=O)COCCOCCNC(=O)CC[C@H](NC(=O)CCCCCCCCCCCCCCCCCCC(=O)O)C(=O)O)C(=O)N[C@@H](CC(N)=O)C(=O)N[C@@H]([C@@H](C)O)C(=O)N[C@@H](C)C(=O)N[C@@H]([C@@H](C)O)C(=O)N1)[C@@H](C)O)C(=O)N1CCC[C@H]1C(=O)N[C@@H](CO)C(=O)N[C@@H](CO)C(=O)N[C@H](C(=O)N1CCC[C@H]1C(=O)N[C@H](C(=O)NCC(=O)N[C@@H](CO)C(=O)N[C@@H](Cc1c[nH]cn1)C(=O)N[C@H](C(=O)N[C@@H](Cc1ccc(O)cc1)C(N)=O)[C@@H](C)O)C(C)C)[C@@H](C)O [Example 57] (H-K([AEEA-γGlu-C20 diacid])CNTATCATQRLANFLRHSSPNFGAIPSSTPVGSHTY-NH2; disulfide 2-7; N-terminus assumed)
Ratio hCT/hAmylin funct. [1, 7]: 35.0
Ratio hCT/hAmylin funct. [1, 8]: 35.0
EC50 [1]: 0.089 nM
Ratio hCT/hAmylin funct. [1, 9]: 35.0
EC50 [2]: 3.12 nM
IC50 [3]: 0.115 nM
Ratio hCT/hAmylin binding [3, 10]: 133.0
Ratio hCT/hAmylin binding [3, 11]: 133.0
Ratio hCT/hAmylin binding [3, 12]: 133.0
Ratio hCT/hAmylin binding [3, 13]: 133.0
Ratio hCT/hAmylin binding [3, 14]: 133.0
Ratio hCT/hAmylin binding [3, 15]: 133.0
Ratio hCT/hAmylin binding [3, 16]: 133.0
IC50 ([4]; Table 7): 0.181 nM
Ratio rCT/rAmylin binding [4, 17]: 134.8
Ratio rCT/rAmylin binding [4, 18]: 134.8
Ratio rCT/rAmylin binding [4, 19]: 134.8
IC50 [5]: 15.3 nM
IC50 [6]: 24.4 nM

CC[C@H](C)[C@H](NC(=O)[C@H](C)NC(=O)CNC(=O)[C@H](Cc1ccccc1)NC(=O)[C@H](CC(N)=O)NC(=O)[C@@H]1CCCN1C(=O)[C@H](CO)NC(=O)[C@H](CO)NC(=O)[C@H](Cc1c[nH]cn1)NC(=O)[C@H](CCCNC(=N)N)NC(=O)[C@H](CC(C)C)NC(=O)[C@H](Cc1ccccc1)NC(=O)[C@H](Cc1c[nH]cn1)NC(=O)[C@H](C)NC(=O)[C@H](CC(C)C)NC(=O)[C@H](CCCNC(=N)N)NC(=O)[C@H](CCC(N)=O)NC(=O)[C@@H](NC(=O)[C@H](C)NC(=O)[C@@H]1CSSC[C@H](NC(=O)[C@@H](N)CCCCNC(=O)CC[C@H](NC(=O)CCCCCCCCCCCCCCCCCCC(=O)O)C(=O)O)C(=O)N[C@@H](CC(N)=O)C(=O)N[C@@H]([C@@H](C)O)C(=O)N[C@@H](C)C(=O)N[C@@H]([C@@H](C)O)C(=O)N1)[C@@H](C)O)C(=O)N1CCC[C@H]1C(=O)N[C@@H](CO)C(=O)N[C@@H](CO)C(=O)N[C@H](C(=O)N1CCC[C@H]1C(=O)N[C@H](C(=O)NCC(=O)N[C@@H](CO)C(=O)N[C@@H](CC(N)=O)C(=O)N[C@H](C(=O)N[C@@H](Cc1ccc(O)cc1)C(N)=O)[C@@H](C)O)C(C)C)[C@@H](C)O [Example 62] (H-K([γGlu-C20 diacid])CNTATCATQRLAHFLRHSSPNFGAIPSSTPVGSNTY-NH2; disulfide 2-7; N-terminus assumed)
Ratio hCT/hAmylin funct. [1, 7]: 12.3
Ratio hCT/hAmylin funct. [1, 8]: 12.3
EC50 [1]: 0.044 nM
Ratio hCT/hAmylin funct. [1, 9]: 12.3
EC50 [2]: 0.539 nM
IC50 [3]: 0.098 nM
Ratio hCT/hAmylin binding [3, 10]: 63.0
Ratio hCT/hAmylin binding [3, 11]: 63.0
Ratio hCT/hAmylin binding [3, 12]: 63.0
Ratio hCT/hAmylin binding [3, 13]: 63.0
Ratio hCT/hAmylin binding [3, 14]: 63.0
Ratio hCT/hAmylin binding [3, 15]: 63.0
Ratio hCT/hAmylin binding [3, 16]: 63.0
IC50 ([4]; Table 7): 0.42 nM
Ratio rCT/rAmylin binding [4, 17]: 42.8
Ratio rCT/rAmylin binding [4, 18]: 42.8
Ratio rCT/rAmylin binding [4, 19]: 42.8
IC50 [5]: 6.17 nM
IC50 [6]: 18 nM
